# According to US20240060133A1, “METHODS FOR IDENTIFICATION AND TREATMENT OF BLEEDING IN ANIMALS” (WASHINGTON STATE UNIVERSITY, priority 2021, published 2024):
# How the values were obtained:
# [1] = test system: delayed postoperative bleeding in Scottish deerhounds; test: Scottish deerhound cases with delayed postoperative bleeding (health survey and veterinary records); assay type: in vivo, Scottish deerhound dogs; settings: for hematocrit and platelet counts: SDH-2, 750 mg intravenous infusion; for hematocrit: SDH-4, continuous intravenous infusion plus transfusions of whole blood and plasma
# Text: For the instant example, Scottish deerhounds with delayed postoperative bleeding and matched controls were identified through a survey distributed to members of the Scottish Deerhound Club of America. A subsection of this survey requested information regarding the surgical history of the dogs, occurrence of postoperative bleeding complications, and perioperative administration of antifibrinolytic drugs (EACA or tranexamic acid). A diagnosis of delayed postoperative bleeding, defined as unexpected bleeding from a surgical wound starting 1 to 4 days after the procedure, was based on review of the owner's description of the event, the veterinary medical record (if available), and therapeutic response to administration of antifibrinolytic drugs (if used). Dogs were excluded if the bleeding event occurred on the same day of surgery, or after more than 4 days following surgery.
# The instant example utilizes the methods described in Example 1 to identify delayed postoperative bleeding cases in canines and controls. Completed health surveys from the owners of 260 Scottish deerhounds were reviewed to identify delayed postoperative bleeding cases and controls. Of the original 260 dogs evaluated, 105 dogs (40%) were identified that had undergone at least one surgical procedure, while 21 dogs (8%) had received two or more surgeries. Nine of 105 dogs (9%) with a surgical history were reported to have experienced postoperative bleeding and/or excessive bruising at least once after a surgical procedure. Of these, bleeding into the abdomen was first diagnosed within 8 hours after surgery in two dogs, while bleeding and/or bruising was not evident until at least the morning after surgery in the remaining 7 dogs. These latter 7 dogs were considered delayed postoperative bleeding cases and all had DNA samples available for case-control analysis. Of the 96 dogs that had undergone surgery without evidence for postoperative bleeding, 25 dogs (26%) had received prophylactic treatment with EACA, while 71 dogs (74%) had not received any antifibrinolytic drug. These latter 71 dogs were considered delayed postoperative bleeding controls. Of the 71 control dogs, 55 dogs had DNA samples available for case-control genetic analysis.
# Case information for the seven dogs (SDH-1 to SDH-7) that met the inclusion/exclusion criteria for delayed postoperative bleeding are shown in Table 1.
# [2] = test system: delayed postoperative bleeding in greyhounds; settings: 46 greyhounds, limb amputation for osteosarcoma, after introduction of the prophylactic treatment; cited from earlier work
# [3] = molecular target: T1, canine plasmin (Canis lupus familiaris, UniProt P80009); test: Plasmin inhibition assay (microplate-based colorimetric kinetic assay); assay type: biochemical; settings: substrate D-VLK-pNA, 37° C., preliminary studies, FIG. 1, read-out: IC50, concentration-dependent inhibition of plasmin activity
# T1 construct: purchased Molecular Innovation, Novi, MI DPLM
# Description: A microplate-based colorimetric kinetic assay was developed and validated to measure the potency of inhibition of canine plasmin by plasma based on a previously published method. Briefly, 2 μL of canine plasma diluted to 50 μL in phosphate-buffered saline (PBS) was added on ice to 96-well UV clear nonbinding plates (Cat. #655901, Greiner Bio-One, Monroe, NC). Then, 50 μL of canine plasmin (Cat. #DPLM, Molecular Innovation, Novi, MI) at 100 nM concentration in 50 μL PBS was added, mixed by pipetting, and incubated at 37° C. for 5 min. To this, 100 μL of prewarmed plasmin substrate (D-VLK-pNA, Molecular Innovation, Novi, MI) at 200 μM concentration in PBS was added, mixed, and immediately placed in a colorimetric plate reader (SpectraMax i3, Molecular Devices, San Jose, CA) set at 37° C. Absorbance at 405 nm was then monitored in each well over the next 5 minutes. Plasmin hydrolysis activity for each well was calculated from the fitted linear slope of the absorbance versus time curve over 5 minutes.
# Preliminary studies confirmed concentration-dependent inhibition of plasmin activity by the antifibrinolytic aprotinin (Cat. #A1153, Sigma Aldrich, St Louis, MO) with an IC50 of approximately 500 nM (see FIG. 1). Plasma collected in sodium citrate and pooled from 2 male and 2 female beagle dogs was obtained from a commercial vendor (Biochemed Services, Winchester, VA). […]
# [4] = SDH-2, Day 1-evening (after aminocaproic acid), 750 mg intravenous infusion
# [5] = prophylactic antifibrinolytic given, individual dogs SDH-3 and SDH-6
# T1 sequence (P80009 104-333 limits assumed): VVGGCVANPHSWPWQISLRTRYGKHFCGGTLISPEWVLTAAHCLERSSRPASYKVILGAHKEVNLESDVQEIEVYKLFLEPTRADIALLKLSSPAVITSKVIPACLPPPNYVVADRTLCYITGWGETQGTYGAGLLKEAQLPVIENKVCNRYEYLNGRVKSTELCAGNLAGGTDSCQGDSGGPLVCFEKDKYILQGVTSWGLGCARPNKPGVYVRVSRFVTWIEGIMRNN
# T1 sequence (P80009 with tags, fused parts or gaps partner limits assumed): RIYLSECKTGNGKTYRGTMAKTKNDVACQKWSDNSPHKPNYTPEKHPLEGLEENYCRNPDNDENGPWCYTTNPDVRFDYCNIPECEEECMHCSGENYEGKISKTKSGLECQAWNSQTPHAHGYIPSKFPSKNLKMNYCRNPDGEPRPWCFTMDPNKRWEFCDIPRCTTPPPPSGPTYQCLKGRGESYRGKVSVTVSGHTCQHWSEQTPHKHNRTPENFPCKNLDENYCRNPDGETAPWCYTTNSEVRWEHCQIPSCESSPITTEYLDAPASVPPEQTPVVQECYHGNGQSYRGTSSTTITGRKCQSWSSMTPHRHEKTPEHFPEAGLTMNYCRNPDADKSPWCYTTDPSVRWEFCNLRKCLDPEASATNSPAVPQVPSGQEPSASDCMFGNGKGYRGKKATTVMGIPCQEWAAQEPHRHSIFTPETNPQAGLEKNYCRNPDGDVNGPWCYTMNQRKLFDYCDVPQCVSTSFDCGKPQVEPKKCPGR
molecule,measurement,setting,value
"NCCCCCC(=O)O [EACA, 6-aminohexanoic acid]",hematocrit and platelet counts,[1]; by Day 5,within their normal range
same,hematocrit and platelet counts,[1]; next morning (Day 2),significantly increased
same,Hematocrit (%),[1]; [4],34.4%
same,Platelet count (×10^9/L),[1]; [4],31 ×10^9/L
same,Hematocrit (%),"[1]; SDH-2, Day 2",41.7%
same,Platelet count (×10^9/L),"[1]; SDH-2, Day 2",125 ×10^9/L
same,Hematocrit (%),"[1]; SDH-2, Day 5",51.9%
same,Platelet count (×10^9/L),"[1]; SDH-2, Day 5",371 ×10^9/L
same,Hematocrit (%),"[1]; SDH-2, Week 5",50.4%
same,Platelet count (×10^9/L),"[1]; SDH-2, Week 5",276 ×10^9/L
same,bleeding after therapeutic treatment,"[1]; SDH-3, castration, 500 mg orally every 8 hours for 5 days, with fluids, antibiotics, vitamin K",No further bleeding was observed
same,bruising or delayed postoperative bleeding after prophylactic treatment,"[1]; SDH-3, splenectomy, 500 mg intravenous infusion during procedure then 500 mg oral every 8 hours for 5 days",No excessive bruising or delayed postoperative bleeding were observed
same,hematocrit,[1]; after one month,60%
same,hematocrit,[1]; at discharge after 5 days (15% before),36%
same,bleeding after therapeutic treatment,"[1]; SDH-6, sebaceous cyst removal, orally administered after bleeding",the bleeding resolved
same,postoperative bleeding or bruising after prophylactic treatment,"[1]; SDH-6, skin abscess surgery, pre-operative oral dose",No postoperative bleeding or bruising was observed
same,bleeding after drug administration,"[1]; dogs with delayed postoperative bleeding, EACA oral or injectable",stopped within hours
same,Delayed bleeding?,[1]; [5],No
same,Outcome,[1]; [5],No complications
same,Outcome,"[1]; therapeutic antifibrinolytic given after delayed bleeding, individual dogs SDH-2 to SDH-6",Responded to antifibrinolytic
same,incidence of bleeding,[2],16%
aprotinin,IC50,[3],~500 nM
